Molecules are shown by their SMILES.

In the first assay the test system is SARS-CoV-2. In words: microbe, parasite or virus in culture. The settings on record: Severe acute respiratory syndrome coronavirus 2, Vero C1008, 48 h.
Turning to `CC(C)c1nc(-c2ccccc2)cc(-c2ccc(F)cc2)c1/C=C/[C@@H]1C[C@@H](O)CC(=O)O1` [GLENVASTATIN], the IC50 was > 20 µM.

As for `CN1CCN(CC(=O)N2c3ccccc3C(=O)Nc3cccnc32)CC1` [PIRENZEPINE], the IC50 is > 20 µM.

For `COc1ccc2c3c1O[C@H]1[C@@H](OC(C)=O)C=C[C@H]4[C@@H](C2)N(C)CC[C@@]341`, the IC50 was > 20 µM.

`N=C(N)N/N=C/c1c(Cl)cccc1Cl` [GUANABENZ]: the IC50 is > 20 µM.

Take `N=C1NC(=O)N2CC12` (centres undefined) [IMEXON]: the IC50 was > 20 µM.

On to `FC(F)(F)c1cccc(C2=CCN(CCc3ccc4ccccc4c3)CC2)c1` [XALIPRODEN], for which the IC50 is > 20 µM.

In the case of `CN(C)N=Nc1[nH]cnc1C(N)=O`, the IC50 is > 20 µM.

As to `Cc1c(Cl)cccc1Nc1ncccc1C(=O)O` [CLONIXIN], the IC50 was > 20 µM.

Regarding `O=c1cc(-c2ccccc2)oc2cccc(O)c12` [5-HYDROXYFLAVONE], the IC50 was > 20 µM.

Turning to `CCCc1c(OCCCCc2nnn[nH]2)ccc(C(C)=O)c1O` [TOMELUKAST], the IC50 was > 20 µM.

On to `CC1=Nc2ccc(Cl)cc2S(=O)(=O)N1` [DIAZOXIDE], for which the IC50 was > 20 µM.

`O=c1n(CCCN2CCN(c3cccc(Cl)c3)CC2)nc2ccccn12` [TRAZODONE]: the IC50 was > 20 µM.

With `NC(=O)NC1NC(=O)NC1=O` (centres undefined) [ALLANTOIN], the IC50 is > 20 µM.

For `CC[C@@]1(c2ccccc2)NC(=O)N(C)C1=O`, the IC50 is > 20 µM.

Take `CC(=O)Oc1ccccc1C(=O)Oc1ccccc1C(=O)O` [DIPLOSALSALATE]: the IC50 was > 20 µM.

Take `Oc1cccc(O)c1O` [PYROGALLOL]: the IC50 was > 20 µM.

On to `NS(=O)(=O)c1cc2c(cc1C(F)(F)F)NCNS2(=O)=O` [HYDROFLUMETHIAZIDE], for which the IC50 is > 20 µM.

As for `CCc1oc2ccccc2c1C(=O)c1cc(Br)c(O)c(Br)c1` [BENZBROMARONE], the IC50 is > 20 µM.

In the case of `COc1cc(/C=C/C(=O)N2CCN(CC(=O)N3CCCC3)CC2)cc(OC)c1OC` [CINEPAZIDE], the IC50 is > 20 µM.

For `CCCCNc1cc(C(=O)O)cc(S(N)(=O)=O)c1Oc1ccccc1` [BUMETANIDE], the IC50 is > 20 µM.

For `O=c1ncn2nc(Sc3ccc(F)cc3F)ccc2c1-c1c(Cl)cccc1Cl` [NEFLAMAPIMOD], the IC50 was > 20 µM.

Turning to `Cc1ccsc1/C=C/C1=NCCCN1C` [MORANTEL], the IC50 is > 20 µM.

For `CN1CCC/C1=N\C(=N\c1ccccc1)N1CCCC1` [PIROGLIRIDE], the IC50 was > 20 µM.

Turning to `COc1cc(C)nc(-n2nc(C)cc2OC)n1` [EPIRIZOLE], the IC50 is > 20 µM.

On to `O=C(O)C1=CCNCC1` [ISOGUVACINE], for which the IC50 is > 20 µM.

`C=CCSCC1Nc2cc(Cl)c(S(N)(=O)=O)cc2S(=O)(=O)N1` (centres undefined) [ALTHIAZIDE]: the IC50 was > 20 µM.

As for `C[C@@H](N)Cc1c[nH]cn1`, the IC50 was > 20 µM.

For `CN[C@@H]1[C@@H](O[C@H]2O[C@H](CO)[C@@H](N)[C@H](O)[C@H]2O)O[C@H]2C[C@@H](N)[C@@H](O[C@H]3[C@H](O)[C@@H](O)[C@H](N)C[C@@H]3N)O[C@@H]2[C@@H]1O`, the IC50 was > 20 µM.

As to `O=[N+]([O-])OCC(CO[N+](=O)[O-])O[N+](=O)[O-]` [NITROGLYCERIN], the IC50 was > 20 µM.

In the case of `COC(=O)Nc1nc2cc(C(=O)c3ccccc3)ccc2[nH]1` [MEBENDAZOLE], the IC50 is > 20 µM.

For `Clc1ccc(Cn2c(CN3CCCC3)nc3ccccc32)cc1` [CLEMIZOLE], the IC50 is > 20 µM.

`O=C(NC1CCN(CCCCC2(C(=O)NCC(F)(F)F)c3ccccc3-c3ccccc32)CC1)c1ccccc1-c1ccc(C(F)(F)F)cc1` [LOMITAPIDE]: the IC50 was > 20 µM.

The same assay, now with this note: Severe acute respiratory syndrome coronavirus 2, Vero C1008, 48 h, read-out: pIC50 (converted).
On to `CC(C)c1nc(-c2ccccc2)cc(-c2ccc(F)cc2)c1/C=C/[C@@H]1C[C@@H](O)CC(=O)O1` [GLENVASTATIN], for which the IC50 was > 20 µM.

With `CN1CCN(CC(=O)N2c3ccccc3C(=O)Nc3cccnc32)CC1` [PIRENZEPINE], the IC50 is > 20 µM.

As for `COc1ccc2c3c1O[C@H]1[C@@H](OC(C)=O)C=C[C@H]4[C@@H](C2)N(C)CC[C@@]341`, the IC50 was > 20 µM.

As for `N=C(N)N/N=C/c1c(Cl)cccc1Cl` [GUANABENZ], the IC50 is > 20 µM.

`N=C1NC(=O)N2CC12` (centres undefined) [IMEXON]: the IC50 was > 20 µM.

As to `FC(F)(F)c1cccc(C2=CCN(CCc3ccc4ccccc4c3)CC2)c1` [XALIPRODEN], the IC50 was > 20 µM.

Regarding `CN(C)N=Nc1[nH]cnc1C(N)=O`, the IC50 is > 20 µM.

On to `Cc1c(Cl)cccc1Nc1ncccc1C(=O)O` [CLONIXIN], for which the IC50 is > 20 µM.

In the case of `O=c1cc(-c2ccccc2)oc2cccc(O)c12` [5-HYDROXYFLAVONE], the IC50 was > 20 µM.

For `CCCc1c(OCCCCc2nnn[nH]2)ccc(C(C)=O)c1O` [TOMELUKAST], the IC50 was > 20 µM.

`CC1=Nc2ccc(Cl)cc2S(=O)(=O)N1` [DIAZOXIDE]: the IC50 was > 20 µM.

On to `O=c1n(CCCN2CCN(c3cccc(Cl)c3)CC2)nc2ccccn12` [TRAZODONE], for which the IC50 is > 20 µM.

For `NC(=O)NC1NC(=O)NC1=O` (centres undefined) [ALLANTOIN], the IC50 is > 20 µM.

As for `CC[C@@]1(c2ccccc2)NC(=O)N(C)C1=O`, the IC50 is > 20 µM.

Regarding `CC(=O)Oc1ccccc1C(=O)Oc1ccccc1C(=O)O` [DIPLOSALSALATE], the IC50 was > 20 µM.

For `Oc1cccc(O)c1O` [PYROGALLOL], the IC50 was > 20 µM.

On to `NS(=O)(=O)c1cc2c(cc1C(F)(F)F)NCNS2(=O)=O` [HYDROFLUMETHIAZIDE], for which the IC50 was > 20 µM.

`CCc1oc2ccccc2c1C(=O)c1cc(Br)c(O)c(Br)c1` [BENZBROMARONE]: the IC50 was > 20 µM.

On to `COc1cc(/C=C/C(=O)N2CCN(CC(=O)N3CCCC3)CC2)cc(OC)c1OC` [CINEPAZIDE], for which the IC50 was > 20 µM.

Take `CCCCNc1cc(C(=O)O)cc(S(N)(=O)=O)c1Oc1ccccc1` [BUMETANIDE]: the IC50 was > 20 µM.

As to `O=c1ncn2nc(Sc3ccc(F)cc3F)ccc2c1-c1c(Cl)cccc1Cl` [NEFLAMAPIMOD], the IC50 was > 20 µM.

Take `Cc1ccsc1/C=C/C1=NCCCN1C` [MORANTEL]: the IC50 is > 20 µM.

Turning to `CN1CCC/C1=N\C(=N\c1ccccc1)N1CCCC1` [PIROGLIRIDE], the IC50 was > 20 µM.

On to `COc1cc(C)nc(-n2nc(C)cc2OC)n1` [EPIRIZOLE], for which the IC50 is > 20 µM.

Consider `O=C(O)C1=CCNCC1` [ISOGUVACINE], for which the IC50 was > 20 µM.

Turning to `C=CCSCC1Nc2cc(Cl)c(S(N)(=O)=O)cc2S(=O)(=O)N1` (centres undefined) [ALTHIAZIDE], the IC50 was > 20 µM.

In the case of `C[C@@H](N)Cc1c[nH]cn1`, the IC50 is > 20 µM.

With `CN[C@@H]1[C@@H](O[C@H]2O[C@H](CO)[C@@H](N)[C@H](O)[C@H]2O)O[C@H]2C[C@@H](N)[C@@H](O[C@H]3[C@H](O)[C@@H](O)[C@H](N)C[C@@H]3N)O[C@@H]2[C@@H]1O`, the IC50 is > 20 µM.

Turning to `O=[N+]([O-])OCC(CO[N+](=O)[O-])O[N+](=O)[O-]` [NITROGLYCERIN], the IC50 was > 20 µM.

As to `COC(=O)Nc1nc2cc(C(=O)c3ccccc3)ccc2[nH]1` [MEBENDAZOLE], the IC50 was > 20 µM.

Turning to `Clc1ccc(Cn2c(CN3CCCC3)nc3ccccc32)cc1` [CLEMIZOLE], the IC50 was > 20 µM.

Regarding `O=C(NC1CCN(CCCCC2(C(=O)NCC(F)(F)F)c3ccccc3-c3ccccc32)CC1)c1ccccc1-c1ccc(C(F)(F)F)cc1` [LOMITAPIDE], the IC50 was > 20 µM.

The record behind these values is ChEMBL document CHEMBL4651402, “Screening of ~5500 FDA-approved drugs and clinical candidates for anti-SARS-CoV-2 activity” (2021).
